Some results are limits rather than exact numbers.

For one data set, the system named is rats. Nature of the data set: Neurotoxicity in rats (positional sense test and gait stance test), p.o. The note with it: rats, p.o.; Table 16. The method, then:
(§1) Neurotoxicity of the claimed agents was also assessed in mice (i.p. administration) by the rotorod ataxia test and/or in rats (p.o. administration) by positional sense test and gait stance test. […] The term quantitating the neurotoxicity is the medial neurological toxic dose (TD50), was determined in the above tests.

Assay in data set [1]: as above
The note with it: rat, in vivo, po. As for the experimental part:
as §1

Data set [2] relates to mechanically dissociated neonatal rat cerebellum. Nature of the data set: Reversal of NMDA induced cell death in cultures of neonatal rat cerebellum. Conditions: for SURVIVING CELL IN CULTURE: relative to control (100%); for PERCENT PROTECTION: Cell Survival minus the NMDA effect; for EFFECTIVE PROTECTION: X x 100/70. It counts as cell-based. Put shortly:
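Cerebellar cells from 6–7-day rat pups on poly-L-lysine at 200/mm^2, grown 3 days (37°C, 5% CO2), then compound with NMDA challenge (1mM, 3 hours); spermine (0.01 micromoles) plus NMDA as positive control, duplicates. Survival by phase contrast and trypan blue after 24 hours; effective protection = percent protection ×100/70.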

The subject of the next data set is male ICR albino mice. Description: Hypobaric hypoxia survival time in mice. It counts as in vivo. The method, then: Dessicator B was disconnected and allowed to equilibrate with room air whilst dessicator A was evacuated to a pressure of 100mmHg. […] The survival time from the moment of induction of hypoxia to the time of cessation of respiration was recorded for each mouse for a maximum of 15 minutes after which time room air was reintroduced to dessicator B. Survivors were monitored for signs of lethargy or vitality.
Effect of drug treatment was assessed as the percent of the survival time of the drug treated group with respect to the saline injected or vehicle injected control group. Control groups were run twice, before and after each experimental group and consisted of 12-16 mice in groups of 4 mice. Each experimental group always consisted of 4 mice to ensure a constant residual volume of oxygen in all tests. The effect of each dose of test drug was determined in duplicate i.e. two groups of 4 mice.
All drugs were administered intra-peritoneally at the dose indicated one hour prior to exposure to hypoxia.

Data set [3] concerns hypoxic rat. Nature of the data set: Amphetamine-induced stereotype behavior in hypoxic rat, Experiments 2A and 2B. In kind it is in vivo. The note with it: for total number of lateral head movements per minute: Exp 2A, 0.5mg/kg daily 29 days, D-amphetamine sulfate 0.5mg/kg s.c., 45-60 min after, Mean ± SEM; for lateral head movements: Exp 2B, 0.3mg/kg daily i.p. 14 days, 12 month-old rats. The method, then: Experiment 2A. Wistar male rats, 15-19 month-old, were exposed to a single hypoxic episode as described above. […] Rats pretreated for 29 days with daily doses of the test drugs (0.5mg/kg), received a sub-cutaneous (s.c.) injection of D-amphetamine sulfate at a dose of 0.5mg/kg. D-amphetamine is known to cause an enhancement of the effects of CNS dopamine by a mechanism involving dopamine release, and blockage of its uptake and its metabolism by MAO. The behavioral manifestation of amphetamine action is a stereotypic pattern of lateral head movements.
Counts of lateral head movements were taken over two successive intervals of 1 min each, 45-60 min after the injection of amphetamine and then averaged.
Experiment 2B. […] The drugs were given by i.p. injection. • 3) Duration of the treatment: 14 days.

In data set [4] the test system is hypoxic rat. Nature of the data set: Passive avoidance test in hypoxic rat, Experiment 3A. Conditions: Exp 3A, day 13 of drug treatment 0.5mg/kg/Day, Mean ± SEM; for latency of response, 48h after electroshock: maximum 300 seconds. It counts as in vivo. The method, then:
Experiment 3A: Wistar male rats, 15-19 month-old, were exposed to a single hypoxic episode as described above. […] The passive avoidance test was performed on day 13 after initiation the drug treatment. The apparatus consisted of a lit chamber that can be separated from a dark chamber by a sliding door. At training, a rat is placed in the lit chamber for 30 seconds, then the door is opened. The rat moves to the dark chamber after a short delay - the latency, that is recorded. Upon entry into the dark chamber, the door is shut closed and a 0.3-mA footshock is delivered for 3 seconds by a Grass S-88 stimulator. Retention of the experience is determined after 48 hours by repeating the test and recording the latency to an arbitrary maximum of 300 seconds. Longer latencies are ascribed to retention of memory and improved cognition.

[5] abbreviates: 0.005 µM + NMDA 1mM for 3 hours.
[6] abbreviates: 0.010 µM + NMDA 1mM for 3 hours.
Where [7] appears, read: 0.100 µM + NMDA 1mM for 3 hours.
The mark [8] stands for this setting: 50 mg/kg ip one hour prior to hypoxia.
The mark [9] stands for this setting: 100 mg/kg ip one hour prior to hypoxia.
Setting [10] is: dose cell empty (line below 50 mg/kg ip).

Take `CC(=O)N[C@@H]1CCc2ccccc21` [Example 18, (R)-N-Acetyl-1-aminoindan]: in the data set with rats, the “RATS TD50” value was above 500 mg/kg. Further, the TD50 in data set [1] is above 500 mg/kg. Also, the “SURVIVING CELL IN CULTURE” value was 80% in data set [2] (setting [5]); 80% in data set [2] (setting [6]); 55% in data set [2] (setting [7]); 47% in data set [2] (1.000 µM + NMDA 1mM for 3 hours); 32% in data set [2] (5.000 µM + NMDA 1mM for 3 hours). Further, the “PERCENT PROTECTION” value in data set [2] (0.005 µM + NMDA) is 50%; in data set [2] (0.010 µM + NMDA), 50%; in data set [2] (0.100 µM + NMDA), 25%; in data set [2] (1.000 µM + NMDA), 17%; in data set [2] (5.000 µM + NMDA), 2%. Also, the “EFFECTIVE PROTECTION” value is recorded as 71% in data set [2] (0.005 µM + NMDA); 71% in data set [2] (0.010 µM + NMDA); 36% in data set [2] (0.100 µM + NMDA); 24% in data set [2] (1.000 µM + NMDA); 3% in data set [2] (5.000 µM + NMDA). Also, the entries for the “PROTECTION % OF RESPECTIVE CONTROL” value with male ICR albino mice (setting [8]), with male ICR albino mice (setting [9]) and in the data set with male ICR albino mice (setting [10]) were 271±193 % OF RESPECTIVE CONTROL, 397±244 % OF RESPECTIVE CONTROL and 383±233 % OF RESPECTIVE CONTROL, respectively.
As to `N[C@@H]1CCc2ccccc21` [R-AI, (R)-1-aminoindan], the “RATS TD50” value with rats was determined as 492 mg/kg. Moreover, in data set [1], the TD50 was 492 mg/kg. Also, in the data set on hypoxic rat [3], the “total number of lateral head movements per minute” value worked out at 108 ± 3 per minute. In the data set with hypoxic rat [3], this compound registered a lateral head movements of 92 ± 3. Also, the “SURVIVING CELL IN CULTURE” value in data set [2] (setting [5]) was found to be 80%; in data set [2] (setting [6]), 30%; in data set [2] (setting [7]), 28%. In addition, the “PERCENT PROTECTION” value in data set [2] (0.005 µM + NMDA) is 50%; in data set [2] (0.010 µM + NMDA), 0%; in data set [2] (0.100 µM + NMDA) it was -2%. The “EFFECTIVE PROTECTION” value in data set [2] (0.005 µM + NMDA) came out at 71%; in data set [2] (0.010 µM + NMDA) it was 0%. Further, the “PROTECTION % OF RESPECTIVE CONTROL” value in the data set with male ICR albino mice (setting [8]) was 358±224 % OF RESPECTIVE CONTROL; in the data set with male ICR albino mice (setting [9]), 395±199 % OF RESPECTIVE CONTROL; in the data set on male ICR albino mice (setting [10]) it was 411±174 % OF RESPECTIVE CONTROL. For the same compound, in the data set with hypoxic rat [4], the “latency of response, before electroshock” value came to 53 ± 6 s. Also, the “latency of response, 48h after electroshock” value in the data set on hypoxic rat [4] stood at 245 ± 33 s.
Consider `C#CCN(C)[C@H](C)Cc1ccccc1` [deprenyl], for which, in the data set on hypoxic rat [3], the “total number of lateral head movements per minute” value is given as 76 ± 3 per minute and the lateral head movements worked out at 77 ± 3. In addition, in the data set on hypoxic rat [4], the “latency of response, before electroshock” value came out at 53 ± 7 s and the “latency of response, 48h after electroshock” value is 153 ± 37 s.

The record behind these values is EP0738149B1 (priority 1994, dated 1995).
